# Assays:
# Format in all cases: functional
# [1] = Antiosteoclast activity in ICR mouse osteoblast like cells co-cultured with bone marrow cells assessed as effect on 1-alpha,25(OH)2D3-induced TRAP-positive osteoclast like multinucleated cell formation at 20 uM after 6 days medium replaced every 2 days relative to control
# [2] = Antiosteoclast activity in ICR mouse osteoblast like cells co-cultured with bone marrow cells assessed as effect on 1-alpha,25(OH)2D3-induced TRAP-positive osteoclast like multinucleated cell formation at 2 uM after 6 days medium replaced every 2 days relative to control
# [3] = Antiosteoclast activity in ICR mouse osteoblast like cells co-cultured with bone marrow cells assessed as effect on 1-alpha,25(OH)2D3-induced TRAP-positive osteoclast like multinucleated cell formation at 200 uM after 6 days medium replaced every 2 days relative to control
# [4] = Antiosteoclast activity in ICR mouse osteoblast like cells co-cultured with bone marrow cells assessed as recovery of 1-alpha,25(OH)2D3-induced TRAP-positive osteoclast like multinucleated cell formation at 20 uM after 6 days drug removal after 2 days relative to control
# [5] = Antiosteoclast activity in ICR mouse osteoblast like cells co-cultured with bone marrow cells assessed as recovery of 1-alpha,25(OH)2D3-induced TRAP-positive osteoclast like multinucleated cell formation at 2 uM after 6 days drug removal after 2 days relative to control
Structure (SMILES),Activity [1] [%],Activity [2] [%],Activity [3] [%],Activity [4] [%],Activity [5] [%]
CC(C)C[C@H](NC(=O)[C@]12CCC(C)(C)C[C@H]1C1=CC[C@@H]3[C@@]4(C)Cc5nc6ccccc6nc5C(C)(C)[C@@H]4CC[C@@]3(C)[C@]1(C)CC2)C(=O)O,45.9,58.3,86.3,92.3,–
CC1(C)CC[C@]2(C(=O)O)CC[C@]3(C)C(=CC[C@@H]4[C@@]5(C)Cc6nc(-c7ccccc7)c(-c7ccccc7)nc6C(C)(C)[C@@H]5CC[C@]43C)[C@@H]2C1,28.1,76.2,–,94.5,–
COC(=O)[C@H](C)NC(=O)[C@]12CCC(C)(C)C[C@H]1C1=CC[C@@H]3[C@@]4(C)Cc5nccnc5C(C)(C)[C@@H]4CC[C@@]3(C)[C@]1(C)CC2,3.4,3.8,93.7,–,96.1
COC(=O)[C@H](Cc1ccccc1)NC(=O)[C@]12CCC(C)(C)C[C@H]1C1=CC[C@@H]3[C@@]4(C)Cc5nc6ccccc6nc5C(C)(C)[C@@H]4CC[C@@]3(C)[C@]1(C)CC2,34.2,53.6,93,93.5,–
COC(=O)[C@H](CC(C)C)NC(=O)[C@]12CCC(C)(C)C[C@H]1C1=CC[C@@H]3[C@@]4(C)Cc5nccnc5C(C)(C)[C@@H]4CC[C@@]3(C)[C@]1(C)CC2,2.8,1.7,96.4,–,95.7
CC1(C)CC[C@]2(C(=O)O)CC[C@]3(C)C(=CC[C@@H]4[C@@]5(C)Cc6c([nH]c7ccc(C(=O)O)cc67)C(C)(C)[C@@H]5CC[C@]43C)[C@@H]2C1,0,77.2,–,97.8,–
COC(=O)[C@H](Cc1ccccc1)NC(=O)[C@]12CCC(C)(C)C[C@H]1C1=CC[C@@H]3[C@@]4(C)Cc5c([nH]c6ccc(Cl)cc56)C(C)(C)[C@@H]4CC[C@@]3(C)[C@]1(C)CC2,77.4,–,–,70.7,95.2
COC(=O)[C@H](CC(C)C)NC(=O)[C@]12CCC(C)(C)C[C@H]1C1=CC[C@@H]3[C@@]4(C)Cc5nc6ccccc6nc5C(C)(C)[C@@H]4CC[C@@]3(C)[C@]1(C)CC2,14,55.1,91.2,97.3,–
COC(=O)[C@H](Cc1ccccc1)NC(=O)[C@]12CCC(C)(C)C[C@H]1C1=CC[C@@H]3[C@@]4(C)CCC(=O)C(C)(C)[C@@H]4CC[C@@]3(C)[C@]1(C)CC2,82.3,–,–,99.1,–
CC1(C)CC[C@]2(C(=O)O)CC[C@]3(C)C(=CC[C@@H]4[C@@]5(C)CC[C@H](O)C(C)(C)[C@@H]5CC[C@]43C)[C@@H]2C1 [OLEANOLIC_ACID],19.4,89.5,97.5,98,–
COC(=O)CNC(=O)[C@]12CCC(C)(C)C[C@H]1C1=CC[C@@H]3[C@@]4(C)Cc5c([nH]c6ccccc56)C(C)(C)[C@@H]4CC[C@@]3(C)[C@]1(C)CC2,0,32.3,86.3,82.9,96.1
CC[C@H](C)[C@H](NC(=O)[C@]12CCC(C)(C)C[C@H]1C1=CC[C@@H]3[C@@]4(C)Cc5nc6ccccc6nc5C(C)(C)[C@@H]4CC[C@@]3(C)[C@]1(C)CC2)C(=O)O,30.6,58.7,95,94.7,–
COC(=O)[C@H](Cc1ccccc1)NC(=O)[C@]12CCC(C)(C)C[C@H]1C1=CC[C@@H]3[C@@]4(C)Cc5nccnc5C(C)(C)[C@@H]4CC[C@@]3(C)[C@]1(C)CC2,29.6,82.8,–,89.5,95.6
CC[C@H](C)[C@H](NC(=O)[C@]12CCC(C)(C)C[C@H]1C1=CC[C@@H]3[C@@]4(C)Cc5nccnc5C(C)(C)[C@@H]4CC[C@@]3(C)[C@]1(C)CC2)C(=O)OC,0.7,0.7,101,–,96.2
CC1(C)CC[C@]2(C(=O)N[C@@H](Cc3ccccc3)C(=O)O)CC[C@]3(C)C(=CC[C@@H]4[C@@]5(C)Cc6c([nH]c7ccc(Cl)cc67)C(C)(C)[C@@H]5CC[C@]43C)[C@@H]2C1,0,77.8,–,0,–
CC1(C)CC[C@]2(C(=O)NCC(=O)O)CC[C@]3(C)C(=CC[C@@H]4[C@@]5(C)Cc6c([nH]c7ccc(Cl)cc67)C(C)(C)[C@@H]5CC[C@]43C)[C@@H]2C1,0,74.2,–,0,–
COC(=O)[C@@H](NC(=O)[C@]12CCC(C)(C)C[C@H]1C1=CC[C@@H]3[C@@]4(C)Cc5nc6ccccc6nc5C(C)(C)[C@@H]4CC[C@@]3(C)[C@]1(C)CC2)C(C)C,36.3,37.1,93,94.6,–

Structure (SMILES),Activity [1] [%],Activity [2] [%],Activity [3] [%],Activity [4] [%],Activity [5] [%]
COC(=O)[C@H](C)NC(=O)[C@]12CCC(C)(C)C[C@H]1C1=CC[C@@H]3[C@@]4(C)Cc5nc6ccccc6nc5C(C)(C)[C@@H]4CC[C@@]3(C)[C@]1(C)CC2,31.2,25.7,77,97.7,–
CC(C)C[C@H](NC(=O)[C@]12CCC(C)(C)C[C@H]1C1=CC[C@@H]3[C@@]4(C)Cc5nccnc5C(C)(C)[C@@H]4CC[C@@]3(C)[C@]1(C)CC2)C(=O)O,44.8,21.2,100.2,–,93.9
CC1(C)CC[C@]2(C(=O)O)CC[C@]3(C)C(=CC[C@@H]4[C@@]5(C)Cc6c([nH]c7ccc([N+](=O)[O-])cc67)C(C)(C)[C@@H]5CC[C@]43C)[C@@H]2C1,0,83,–,38.6,–
NCCCC(O)(P(=O)([O-])O)P(=O)(O)O.[Na+] [ALENDRONATE SODIUM],0,3.5,47.5,–,–
CC1(C)CC[C@]2(C(=O)O)CC[C@]3(C)C(=CC[C@@H]4[C@@]5(C)Cc6nc7ccccc7nc6C(C)(C)[C@@H]5CC[C@]43C)[C@@H]2C1,0,72.7,–,92.6,–
COC(=O)[C@H](Cc1ccccc1)NC(=O)[C@]12CCC(C)(C)C[C@H]1C1=CC[C@@H]3[C@@]4(C)Cc5c([nH]c6ccccc56)C(C)(C)[C@@H]4CC[C@@]3(C)[C@]1(C)CC2,0,69.2,–,79.8,–
COC(=O)CNC(=O)[C@]12CCC(C)(C)C[C@H]1C1=CC[C@@H]3[C@@]4(C)Cc5nc6ccccc6nc5C(C)(C)[C@@H]4CC[C@@]3(C)[C@]1(C)CC2,20.7,31.9,34.1,94.3,–
CC[C@H](C)[C@H](NC(=O)[C@]12CCC(C)(C)C[C@H]1C1=CC[C@@H]3[C@@]4(C)Cc5c([nH]c6ccc(Cl)cc56)C(C)(C)[C@@H]4CC[C@@]3(C)[C@]1(C)CC2)C(=O)O,0,86.9,–,0,–
CC(C)[C@H](NC(=O)[C@]12CCC(C)(C)C[C@H]1C1=CC[C@@H]3[C@@]4(C)Cc5c([nH]c6ccc(Cl)cc56)C(C)(C)[C@@H]4CC[C@@]3(C)[C@]1(C)CC2)C(=O)O,0,80,–,0,–
COC(=O)[C@H](C)NC(=O)[C@]12CCC(C)(C)C[C@H]1C1=CC[C@@H]3[C@@]4(C)Cc5c([nH]c6ccccc56)C(C)(C)[C@@H]4CC[C@@]3(C)[C@]1(C)CC2,0,99.4,–,81.5,–
CC(C)C[C@H](NC(=O)[C@]12CCC(C)(C)C[C@H]1C1=CC[C@@H]3[C@@]4(C)Cc5c([nH]c6ccc(Cl)cc56)C(C)(C)[C@@H]4CC[C@@]3(C)[C@]1(C)CC2)C(=O)O,0,71.6,–,0,–
COC(=O)[C@H](CC(C)C)NC(=O)[C@]12CCC(C)(C)C[C@H]1C1=CC[C@@H]3[C@@]4(C)CCC(=O)C(C)(C)[C@@H]4CC[C@@]3(C)[C@]1(C)CC2,92.9,–,–,100.2,–
CC(C)C[C@H](NC(=O)[C@]12CCC(C)(C)C[C@H]1C1=CC[C@@H]3[C@@]4(C)Cc5c([nH]c6ccccc56)C(C)(C)[C@@H]4CC[C@@]3(C)[C@]1(C)CC2)C(=O)O,0,98.2,–,80.5,–
CC1(C)CC[C@]2(C(=O)O)CC[C@]3(C)C(=CC[C@@H]4[C@@]5(C)Cc6nc7cc([N+](=O)[O-])ccc7nc6C(C)(C)[C@@H]5CC[C@]43C)[C@@H]2C1,24.1,88.7,–,–,–
COC(=O)CNC(=O)[C@]12CCC(C)(C)C[C@H]1C1=CC[C@@H]3[C@@]4(C)Cc5nccnc5C(C)(C)[C@@H]4CC[C@@]3(C)[C@]1(C)CC2,41.1,93.5,–,–,–
CC1(C)CC[C@]2(C(=O)O)CC[C@]3(C)C(=CC[C@@H]4[C@@]5(C)Cc6nccnc6C(C)(C)[C@@H]5CC[C@]43C)[C@@H]2C1,1.8,16.4,97.6,93.2,–

# — ChEMBL document CHEMBL1152890, “Synthesis and evaluation of a novel series of heterocyclic oleanolic acid derivatives with anti-osteoclast formation activity” (Eur J Med Chem, 2009)
